Results: patent US10871495B2, “Biomarkers of polycystic kidney disease and uses thereof” (Genzyme Corporation, priority 2014, dated 2020)

Assays:
jck mice [1] = experiment: Immunoblot of marker levels in kidney lysate of jck mice treated with GCS inhibitor; type: in vivo, mouse; settings: jck mice treated continuously for 5 weeks (0.225% in diet), vs control mice, FIG. 3
Experimental: (§1) C57BL/6J jck/+ mice were maintained for crossing. The cystic jck/jck mice were genotyped as previously described (Smith et al., J. Am. Soc. Nephrol. 17:2821-2831, 2006). Pcy mice were maintained on a CD1 genetic background as previously described (Takahashi et al., J. Am. Soc. Nephrol. 1:980-989, 1991). GCS inhibitor C9 was administered ad libitum to jck and pcy mice by mixing in powdered 5053 diet at 0.225% from 26 to 64 days and 4 to 30 weeks of age, respectively (as described in Natoli et al., Nature Medicine 16:788-792, 2010). Urine samples from the mice were collected in metabolic cages over a 24-hour period and stored at −80° C.
(§2) Kidney samples were homogenized on ice in radioimmunoprecipitation assay (RIPA) buffer (Boston BioProducts, Ashland, Mass.) containing 1 mM dithiothreitol, 5 mM ethylenediaminetetraacetic acid (EDTA), 2 mM NaF, 1 mM Na3VO4 (all supplied by Sigma-Aldrich, St. Louis, Mo.), Pefabloc SC and Complete protease inhibitor cocktail (both from Roche, Basel, Switzerland). Protein concentration was determined by BCA protein assay (Pierce, Rockford, Ill.). The samples were loaded onto 4-12% NuPage Bis-Tris gels following the manufacturer's protocols (Invitrogen, Grand Island, N.Y.). Electrophoretic transfer of the proteins in the gel onto nitrocellulose was performed in a semi-dry apparatus according to the manufacturer's instructions (Invitrogen). After electrophoretic transfer, the resulting membranes were blocked with 5% non-fat milk in tris-buffered saline (TBS) containing 0.1% Tween-20 and incubated with primary antibodies overnight at 4° C. The primary antibodies were detected with horseradish peroxidase-labeled secondary antibodies at a 1:10,000 dilution (Promega, Fitchburg, Wis.). […] The primary antibodies to the following antigenes were used: PCNA (DAKO, Carpinteria, Calif.), cyclin D1, S6, phospho-S6 (Ser235/236), phospho-AKT (ser473), total ERK, phospho-ERK (Thr202/Tyr204) (Cell Signaling Technology, Danvers, Mass.), cyclin D3, total AKT, caspase-2, RBBP (BD Biosciences, Billerica, Mass.), MEK1 (Upstate Biotechnology, Lake Placid, N.Y.), aquaporin-2 (Millipore, Billerica, Mass.) β-actin, TSG101 (Abcam, Cambridge, Mass.), ALIX (Santa Cruz Biotechnology, Dallas, Tex.), and GAPDH (US Biological, Salem, Mass.).
(§3) A further set of experiments was performed to determine whether the same markers could be used to determine the efficacy of a treatment for PKD in a patient having PKD. In these experiments, urine samples from jck mice that were treated with GCS inhibitor C9 continuously for 5 weeks were gathered (FIG. 2) and the levels of each biomarker were analyzed in urine exosomes and kidney lysate samples. […] The data in FIG. 3 show, e.g., that the levels of PCNA, cyclin D3, RBBP, MEK, Erk, phosphorylated ERK, Akt, phosphorylated Akt, S6, phosphorylated S6, and caspase-2 are decreased in kidney lysate samples from jck mice treated with a GCS inhibitor as compared to the levels in kidney lysate samples from control mice. The data in FIG. 3 also show, e.g., that the levels of PCNA, cyclin D1, cyclin D3, MEK, and S6 are decreased in urinary exosomes from jck mice treated with a GCS inhibitor as compared to the levels in urinary exosomes from control mice.

jck mice [2] = experiment: Immunoblot of marker levels in urinary exosomes of jck mice treated with GCS inhibitor; type: in vivo, mouse; settings: jck mice treated continuously for 5 weeks (0.225% in diet), vs control mice, FIG. 3
Experimental: as §1
(§4) Exosomes were isolated from pooled urine samples (animal studies) or mid void urine samples (human samples) by ultracentrifugation at 100,000 g for 2 hours. Following ultracentrifugation, the exosome pellet was resuspended in 2.5× Laemmli Buffer (5×: 15% SDS, 0.575 M sucrose, 0.325 M Tris, pH 6.8, 5% beta-mercapto ethanol, and 0.002% bromophenol blue) for sodium dodecyl sulfate-polyacrylamide gel electrophoresis (SDS-PAGE) and immunoblot analysis.
as §2
as §3, with “The data in FIG. 3 also show, e.g., that the levels of PCNA, cyclin D1, cyclin D3, MEK, and S6 are decreased in urinary exosomes from jck mice treated with a GCS inhibitor as compared to the levels in urinary exosomes from control mice.” left out

pcy mice [3] = experiment: Immunoblot of marker levels in kidney lysate of pcy mice treated with GCS inhibitor; type: in vivo, mouse; settings: pcy mice treated for thirty weeks (0.225% in diet), vs untreated mice, FIG. 4
Experimental: as §1, §2
A further set of experiments was performed to validate the use of the markers described herein for both diagnosing and determining the efficacy of treatment in human patients having PKD. In these experiments, another mouse model of PKD, pcy mice were used. The pcy mouse model is a slowly progressive adult form of PKD characterized by cyst formation and fibrosis. […] In these experiments, pcy mice were left untreated or were treated with GCS inhibitor C9 for thirty weeks, and then the expression levels of the markers described herein were determined in both kidney lysate and urine exosome samples. The data from these experiments show the levels of the markers were decreased in both the kidney lysate samples and the urine exosome samples from pcy mice treated with GCS inhibitor C9 as compared to the corresponding levels in the untreated mice (FIG. 4). […] The data in FIG. 4 also show, for example, that the levels of PCNA, phosphorylated Erk, phosphorylated Akt, and S6 are decreased in urinary exosomes from pcy mice treated with GCS inhibitor C9 as compared to the untreated mice.

pcy mice [4] = experiment: Immunoblot of marker levels in urinary exosomes of pcy mice treated with GCS inhibitor; type: in vivo, mouse; settings: pcy mice treated for thirty weeks (0.225% in diet), vs untreated mice, FIG. 4
Experimental: as §1, §4
Kidney samples were homogenized on ice in radioimmunoprecipitation assay (RIPA) buffer (Boston BioProducts, Ashland, Mass.) containing 1 mM dithiothreitol, 5 mM ethylenediaminetetraacetic acid (EDTA), 2 mM NaF, 1 mM Na3VO4 (all supplied by Sigma-Aldrich, St. Louis, Mo.), Pefabloc SC and Complete protease inhibitor cocktail (both from Roche, Basel, Switzerland). Protein concentration was determined by BCA protein assay (Pierce, Rockford, Ill.). The samples were loaded onto 4-12% NuPage Bis-Tris gels following the manufacturer's protocols (Invitrogen, Grand Island, N.Y.). Electrophoretic transfer of the proteins in the gel onto nitrocellulose was performed in a semi-dry apparatus according to the manufacturer's instructions (Invitrogen). After electrophoretic transfer, the resulting membranes were blocked with 5% non-fat milk in tris-buffered saline (TBS) containing 0.1% Tween-20 and incubated with primary antibodies overnight at 4° C. The primary antibodies were detected with horseradish peroxidase-labeled secondary antibodies at a 1:10,000 dilution (Promega, Fitchburg, Wis.). […]
A further set of experiments was performed to validate the use of the markers described herein for both diagnosing and determining the efficacy of treatment in human patients having PKD. […] In these experiments, pcy mice were left untreated or were treated with GCS inhibitor C9 for thirty weeks, and then the expression levels of the markers described herein were determined in both kidney lysate and urine exosome samples. […]

pcy mice [5] = settings: Natoli et al., Nature Medicine 16:788-792, 2010; cited from earlier work

CCCCCCCCC(=O)N[C@H](CN1CCCC1)[C@H](O)c1ccc2c(c1)OCCO2 [GCS inhibitor C9]
level of Akt (jck mice [1]): decreased | level of Erk (jck mice [1]): decreased | level of MEK (jck mice [1]): decreased | level of PCNA (jck mice [1]): decreased | level of RBBP (jck mice [1]): decreased | level of S6 (jck mice [1]): decreased | level of caspase-2 (jck mice [1]): decreased | level of cyclin D3 (jck mice [1]): decreased | level of phosphorylated Akt (jck mice [1]): decreased | level of phosphorylated ERK (jck mice [1]): decreased | level of phosphorylated S6 (jck mice [1]): decreased | level of MEK (jck mice [2]): decreased | level of PCNA (jck mice [2]): decreased | level of S6 (jck mice [2]): decreased | level of cyclin D1 (jck mice [2]): decreased | level of cyclin D3 (jck mice [2]): decreased | level of PCNA (pcy mice [3]): decreased | level of S6 (pcy mice [3]): decreased | level of phosphorylated Akt (pcy mice [3]): decreased | level of phosphorylated Erk (pcy mice [3]): decreased | level of phosphorylated S6 (pcy mice [3]): decreased | level of PCNA (pcy mice [4]): decreased | level of S6 (pcy mice [4]): decreased | level of phosphorylated Akt (pcy mice [4]): decreased | level of phosphorylated Erk (pcy mice [4]): decreased | cystogenesis (pcy mice [5]): effective inhibition | fibrogenesis (pcy mice [5]): effective inhibition
